Data as given in patent US20160220466A1, “HAIR TREATMENT COMPOSITION” (Lonza Ltd., priority 2015, published 2016).

Experiments:
[1] = test system: level 9 bleached light brown hair; assay: Fourier Transform Infrared Spectroscopy (FTIR, UATR) of treated hair tress; conditions: 1.5% compound in water, pH4.5; tress soaked at 35° C. for 10 minutes, dried; same tresses as DSC
Protocol: (§1) The same hair tresses were also analysed by Fourier Transform Infrared Spectroscopy (FTIR) (Perkin Elmer Frontier) using an UATR attachment. […] For example, in the FTIR spectra, the peaks at 1853 cm^−1 and 1547 cm^−1 are peaks which are neither present in the AADEG itself or the untreated hair, and conversely peaks at 1888 cm^−1 and 1164 cm^−1 are present in the untreated hair, but not in the treated hair.
as §1, with “1713” for “1853”, “1481” for “1547”, “1351” for “1888”, “1303” for “1164”

[2] = test system: level 9 bleached light brown hair; assay: Differential Scanning Calorimetry of treated hair tress (denaturation temperature); conditions: 1.5% compound in water, pH4.5; tress soaked at 35° C. for 10 minutes, dried; DSC 90-180° C. at 4° C. per minute
Protocol: A 2.5 g tress of level 9 bleached light brown hair was treated with the aforementioned composition as follows.
a) Soaked the tress in 25 ml solution of the composition at 35° C. for 10 minutes
b) Excess liquor was squeezed off
c) Dry the hair tress using a hair drier.
The hair tress was then evaluated by Differential Scanning Calorimetry (Perkin Elmer DSC6000). Samples (˜5 mg) were cut and placed into a stainless steel pan and 50 microlitres deionised Water was added before sealing. The heating profile was between 90-180° C. at 4° C. per minute.

With `CC(=O)CC(=O)OCCOC(=O)CC(C)=O` [Acetoacetylated Ethylene Glycol] the “2nd derivative FTIR spectra of treated hair compared to untreated samples” value [1] was “a number of new bonds” and the “denaturation temperature (Td) of treated hair compared to hair treated with water alone” value [2] was “significant increase”.

`CC(=O)CC(=O)OCCOCCOCCOC(=O)CC(C)=O` [Acetoacetylated Triethylene Glycol] was tested, and the “denaturation temperature (Td) of treated hair compared to hair treated with water alone” value [2] was “significant increase”.

With `CC(=O)CC(=O)OCCOCCOC(=O)CC(C)=O` [Acetoacetylated Diethylene Glycol] the “2nd derivative FTIR spectra of treated hair compared to untreated samples” value [1] was “a number of new bonds” and the “denaturation temperature (Td) of treated hair compared to hair treated with water alone” value [2] was “significant increase”.
